Results as given in US6461844B1, “Liver GalNAc-1-phosphate kinase” (The Board of Trustees of the University of Arkansas, priority 1995, dated 2002).
Values belong to the molecule of their own block, whether it stands above or below them.

Tests used:
GalNAc kinase [1] = target: T1, GalNAc kinase (Sus scrofa, UniProt A0A287BB25); experiment: Phosphate donor specificity of GalNAc kinase; format: biochemical, pig; design: Radioactivity in Sugar-P: unit not given beside the values
T1 construct: This enzyme was purified about 1400-fold from the cytosolic fraction of pig kidney; from tissue; host or cells: pig kidney cytosol

GalNAc kinase [2] = target: T1, GalNAc kinase; experiment: Effect of substrate concentration on GalNAc kinase activity (Km); format: biochemical, pig; details: 300 μM GalNAc; Lineweaver-Burk; read-out: Km for ATP
Protocol: (§1) In FIG. 3A, various amounts of GalNAc were added to otherwise standard incubation mixtures containing 300 μM ATP, and the amount of GalNAc phosphorylated by the purified enzyme was determined. In FIG. 3B, the data was replotted by the method of Lineweaver and Burk. In FIG. 3C, various amounts of the other substrate, ATP, were added to otherwise standard incubation mixtures containing saturating (300 μM) levels of GalNAc and the amount of phosphorylation of GalNAc by the purified enzyme was determined.
(§2) GalNAc kinase activity was assayed in incubation mixtures of 200 μl containing the following components: [^3H]GalNAc (10,000 cpm), 1 μmole of ATP, 2 μmoles of MgCl2, 20 μmoles of Tris-HCl buffer, pH 7.5, and various amounts of the enzyme preparations to be assayed. Following an incubation for the appropriate time, the reaction was stopped by heating at 100° C. for 5 min., and the incubation mixture was applied to a column of DE-52. The column was washed with at least 5 column volumes of 10 mM (NH4)HCO3 buffer to remove unbound material, and then GalNAc phosphate was eluted with 500 mM ammonium bicarbonate. Aliquots of the wash and eluent were removed and assayed for their radioactive content by scintillation counting.

GalNAc kinase [3] = target: T1, GalNAc kinase; experiment: Azido-ATP[32P] photoaffinity labeling of the purified kinase; format: binding, pig; details: unlabeled nucleotide added
Protocol: The proteins were transferred to nitrocellulose membranes and exposed to film to detect the radioactive bands.
The purified enzyme fraction was incubated with azido-ATP[^32P], exposed to UV light and run on SDS gels. […] The product of the reaction was characterized as GalNAc-α-1-P by susceptibility of the phosphate group to mild acid hydrolysis, by its mobility on TLC and Dionex chromatography, and by high resolution NMR.
The GalNAc kinase was purified from the cytosolic fraction of pig kidney using the purification scheme described in the section above and outlined in Table I. Using this procedure, the kinase was purified about 1400-fold from crude extracts with a recovery of about 24%. […] In addition, the amount of label in that band increased with increasing amounts of the probe, and the labeling was inhibited by adding unlabeled ATP, but not by other nucleotides. […] Moreover, gel filtration of the native enzyme on Sephadex G-100 gave an activity peak in the region where proteins of about 48-51 kDa elute. Thus the native protein is probably a monomer of about 50 kDa molecular weight. Sufficient amounts of this protein band can be prepared to determine the amino acid sequence and to prepare antibodies.

[4] = Acid lability of the phosphate group of sugar phosphates; format: physicochemical; details: 0.05 N HCl, 100° C., up to 50 minutes
Protocol: A large amount of the radioactive product formed by the GalNAc kinase was isolated and purified on a DE-52 column, and this product was suspended in 0.05 N HCl and placed in a hot water bath at about 95° C. At various times, aliquots of the reaction mixture were removed, cooled, neutralized and passed through a column of DE-52 to determine whether the ^3H-GalNAc had lost its charge. Standards of Glc-6-P, Glc-1-P, GalNAc-1-P and GlcNAc-6-P were also subjected to the same hydrolysis conditions and were tested for their susceptibility to loss of phosphate.
The radioactive material was examined for purity and characterization by TLC chromatography on cellulose plates in 70% ethanol: 1 M ammonium acetate, pH 7.5 (7:3), or in 70% ethanol: 1 M ammonium acetate, pH 3.5 (7:3). The product was subjected to HPLC on the Dionex apparatus, using a column to separate various sugar phosphates from each other. Sugar-1-phosphates were distinguished from sugar-6-phosphates by their susceptibility to acid hydrolysis in 0.05 N HCl at 100° C. Sugar-1-phosphates are rapidly hydrolyzed whereas sugar-6-phosphates are stable. […]
The radioactive product from the ion exchange columns was suspended in 0.05 N HCl and heated at 100° C. for various periods of time. […] The amount of radioactivity that emerged in the wash was taken as a measure of removal of the phosphate group. […]

[5] = system: UDP-GlcNAc pyrophosphorylases; details: UDP-GlcNAc = 100%; cited from earlier work
[6] = system: UDP-GlcNAc pyrophosphorylase; details: partially purified enzyme; cited from earlier work
[7] = substrate: CC(=O)N[C@H]1C(O)O[C@H](CO)[C@H](O)[C@@H]1O; experiment: Effect of substrate concentration on GalNAc kinase activity (Km); format: biochemical, pig; details: other: 300 μM ATP; Lineweaver-Burk; pH 7.5
Protocol: as §1, §2

activity as phosphate donor (GalNAc kinase [1]): by far the best phosphate donor
Radioactivity in Sugar-P (GalNAc kinase [1]; nucleotide added at 5 mM): 10,195
Specific Activity (GalNAc kinase [1]; nucleotide added at 5 mM): 160.0 nmol/mg
Km (GalNAc kinase [2]): 100 µM
effect on labeling of the 50 kDa band by ATP[32P] photoaffinity probe (GalNAc kinase [3]): inhibited
Molecule: Nc1ncnc2c1ncn2[C@@H]1O[C@H](COP(=O)(O)OP(=O)(O)OP(=O)(O)O)[C@@H](O)[C@H]1O [ATP]

Molecule: CC(=O)N[C@@H]1C(O)[C@H](O)[C@@H](COP(=O)(O)O)O[C@H]1O (stereo partly drawn) [GlcNAc-6-phosphate]
stability to acid hydrolysis [4]: quite stable

Molecule: CC(=O)N[C@H]1[C@@H](OP(=O)(O)OP(=O)(O)OC[C@H]2O[C@@H](n3ccc(=O)[nH]c3=O)[C@H](O)[C@@H]2O)O[C@H](CO)[C@H](O)[C@@H]1O [UDP-GalNAc]
activity towards substrate [5]: 3%
rate of pyrophosphorolysis relative to UDP-GlcNAc [6]: about 2.8%

B1: GalNAc kinase (Sus scrofa) (protein)
chain: MATEGPPVHQVQVAEHPRLLKLKEIFNSKFGSIPKFYVRAPGRVNIIGEHIDYCGYSVLPMAVEQDMLIAVEPVKTHTLQLANTNPLYPDFNTSADNIQIDKTKPLWHNYFLCGFKGIQEHFGLSNLIGMNCLVDGNIPPSSGLSSSSALVCCAGLVTLTVLGMNLSKVELAEICAKSERYIGTEGGGMDQSISFLAEEGTAKLIEFSPLRATDVKLPSGAVFVIANSCVEMNKAATSHFNIRVMECRLAAKLLAKHRSLQWDKVLRLEEVQAKLGVSLEEMLLITEDTLHPEPYSPEEVCQCLGISLQELKTQILSPNTQDVLTFKLYQRAKHVYSEAARVLQFKKICEEAPDDMVQLLGELMNQSHVSCRDMYECSCPELDQLVDICRKFGAQGSRLTGAGWGGCTVSIVLADKLPSFLANVHEAYYQKSGRSLAPEKQSLFATKPGGGALVFLEA
notes: This enzyme was purified about 1400-fold from the cytosolic fraction of pig kidney; from tissue; host or cells: pig kidney cytosol
Km [7]: 50 µM
